For assay [1], the system named is gastric acid secretion. Nature of the assay: Gastric acid secretion inhibition, modified Shay rat procedure. It is filed as in vivo, rats (male, CFE strain). The note with it: Rattus norvegicus, read-out: Percent inhibition of gastric acid secretion. The text has this: The novel compounds of the present invention are effective inhibitors of gastric acid secretion and of ulcer development in experimental animals, and thus are potentially valuable as agents for the control of gastric secretion and of gastric erosion and as anti-ulcer agents. Gastric acid secretion inhibitory action is usually measured by the "Shay rat" procedure ^(1,2) with some modifications as follows.
(1) Shay et al., Gastroenterology, 5, 43 (1945).
The rats (male, CFE strain) were starved for 48 hours (water was given ad libitum) to permit evacuation of stomach contents. On the morning of the experiment, under ether anesthesia, the abdominal region was shaved and a midline incision (1-11/2" ) was made with a scapel. With the help of a closed curved hemostat the duodenum was picked up. Upon getting the duodenum into view, fingers were used to pull the stomach through the opening, the stomach was then gently manipulated with fingers to rid stomach of air and residual matter which were pushed through the pylorus. Two-5 inch sutures were drawn under the pyloric-duodenal puncture. A ligature at the juncture, was formed with one of the threads. The second ligature was also formed but not tightened.
The test compound or the vehicle, usually 1 ml./100 g. body weight, were injected into the duodenum as close as possible to the first ligature. After injection the second ligature was tightened below the injection site to minimize leakage. The stomach was placed back through the opening into the abdominal cavity, the area of incision was washed with saline and the incision was closed with autoclips. (Occasionally, instead of an intraduodenal injection, animals were dosed by the oral or subcutaneous route. In the latter case, dosing was done thirty to sixty minutes before the operation.)
The abdominal cavity was exposed by cutting with scissors and the esophagus close to the stomach was clamped off with a hemostat, the stomach was removed by cutting above the hemostat (the esophagus was cut) and between the two sutures. Extraneous tissue was removed, the stomach washed with saline and blotted on gauze. A slit was carefully made in the stomach which was held over a funnel and the contents were collected in a centrifuge tube. The stomach was further cut along the outside edge and turned inside out. Two ml. H2 O were used to wash the stomach contents into the respective centrifuge tube. The combined stomach contents and wash were then centrifuged out for 10 minutes in the International Size 2 Centrifuge (setting at 30). The supernatant was collected, volume measured and recorded, 2 drops of a phenylphthalein indicator (1% in 95% ethanol) were added and the solution was titrated with 0.02 N NaOH (or with 0.04 N NaOH when large volumes of stomach contents were encountered) to pH 8.4 (because of usual coloring of the stomach contents, phenolphthalein was only used to permit visual indication that the end point was near) and the amount of acid present was calculated.
Compounds inducing inhibition of gastric acid secretion of 20% or more were considered active. In a representative operation, and merely by way of illustration, the results obtained with this assay with typical compounds of the present invention are given in Table II below.

The subject of assay [2] is ulcerogenic effects induced by indomethacin (stomach ulcers). It is filed as in vivo, rat. The note with it: indomethacin 20 mg/kg s.c., score 0-4. As for the experimental part: It is further to be noted that although prostaglandins in general are not effective when administered by oral route, the compounds of this invention are effective orally. The assay to determine the protective effect of these compounds is carried out in the following manner.
Rats were starved for 48 hours (water was given ad libitum). Indomethacin (20 mg./kg. of body weight) was administered by the subcutaneous route and one-half the dose of the test compound was administered by gavage at the same time. After three hours, the second half of the test compound was administered, also by gavage. Five hours after the administration of indomethacin the animals were decapitated and the stomachs removed. The stomachs were washed with distilled water, blotted on gauze, cut along the larger curvature, and the contents rinsed with distilled water. The stomachs were spread out, pinned on a cork and visualized under magnifying glass for ulcers. The criteria for scoring of ulcers was as previously reported. [Abdel-Galil et al. Brit. J. Pharmac. Chemotherapy 33:1-14 (1968)]. […]
1 Petechial hemorrhage of pin point ulcers
3 Many ulcers, a few large
4 Many ulcers, mainly large
Control animals treated with indomethacin but not test compound consistently give scores of about 2.5-3.5. Control animals treated with neither indomethacin not test compound give scores of about 0.5-0.8. Compounds diminishing the control ulcer score by 0.5 unit or more are considered to be active.

Assay [3] deals with basal gastric acid secretion. Nature of the assay: Inhibition of total acid output (basal gastric acid secretion) in the acute gastric fistula rat. It is filed as in vivo, female Sprague-Dawley rats. The note with it: intraduodenal; for inhibition in vivo at 10 mg/kg / inhibition in vivo at 2.5 mg/kg / inhibition in vivo at 5 mg/kg: Rattus norvegicus. As for the experimental part:
Inhibition of basal gastric acid secretion can be determined by the following procedure.
Female Sprague-Dawley rats weighing 140-160 grams are fasted in individual cages for 18-24 hours. The rats are then lightly anesthetized with ether and their front teeth extracted to avoid destruction of the plastic cannula. A midline incision is then made and the stomach and duodenum exposed. A flanged polyvinyl tube is inserted into the fundic portion of the stomach and secured with a purse string suture line using 4-O Mersilene. The rat is then dosed by injection of the compound into the duodenum (1.0 ml. per 100 gram body weight). After dosing, the abdominal wall and skin are closed using metal wound clips. The rat is replaced in a cage containing a longitudinal slit to allow the polyvinyl tube to hang freely. An 8 ml. plastic collecting tube is attached to the flanged cannula and hangs freely below the cage. The first 30 minute sample is discarded designating this time as zero. The collecting tube is attached again and samples removed at the end of 60 and 120 minutes. These samples are referred to as "A" and "B" in the table. The hourly samples are then transferred to a 15 ml. centrifuge and centrifuged for 5-10 minutes. Total and sediment volume are then recorded with the supernatent volume being used as volume of secretion. A 1 ml. or less aliquot is then removed and placed in a 50 ml. beaker containing 10 ml. of distilled water. This sample is then titrated using 0.01 N NaPH to pH 7.0 using a Beckman zeromatic pH meter. Volume, titratable acidity (mew/L) and total acid output (ueq/hour) are recorded. Percent inhibition is determined by comparison with the appropriate control. Groups of three rats were used for preliminary testing, and groups of six rats were used for dose-response evaluations. All compounds are administered in a vehicle consisting of 0.5% methocel, 0.4% tween 80, and saline at a constant volume of 1 ml./100 gram rat. Samples are dispersed by sonification. Percent inhibition is calculated on basis of concurrent vehicle control.
In Table III which follows is given the effect on total acid output after 60 minutes and 120 minutes of intraduodenal dose, of representative compounds of this invention.

Where [4] appears, read: total oral dose 50 mg/kg, controls 2.5-3.2.
Setting [5] is: 1 h, 10 mg/kg, 60 min, read-out: % Inhibition of total acid output, after 60 minutes (A).
[6] abbreviates: 2 h, 10 mg/kg, 120 min, read-out: % Inhibition of total acid output, after 120 minutes (B).
[7] abbreviates: 1 h, 60 min, read-out: % Inhibition of total acid output, after 60 minutes (A).
The mark [8] stands for this setting: 2 h, 120 min, read-out: % Inhibition of total acid output, after 120 minutes (B).
[9] abbreviates: total oral dose 25 mg/kg, controls 2.7-3.9.

Where two headings read alike, the source gives them in different places.

With `CCCCC[C@@H](/C=C/[C@H]1[C@H](SC)CC(=O)[C@@H]1C/C=C\CCCC(=O)OC)OC(C)=O` [l-11α-methylthio-11-deoxyprostaglandin-E2 15-O--acetate methyl ester], the inhibition in vivo at 50 mg/kg in assay [1] (intraduodenal) stood at 35%. Moreover, the “Ulcer score, treated animals” value in assay [2] (setting [4]) is 2.0.

In the case of `CCCCC[C@@H](/C=C/[C@H]1[C@H](C)CC(=O)[C@@H]1C/C=C\CCCC(=O)OC)OC(C)=O` [l-11α-methyl-11-deoxyprostaglandin-E2 15-O--acetyl methyl ester], the inhibition in vivo at 50 mg/kg in assay [1] (intraduodenal) was determined as 63%.

For the molecule `CCCCC[C@H](O)/C=C/[C@H]1[C@H](C(C)(C)O)CC(=O)[C@@H]1C/C=C\CCCC(=O)O` [11-deoxy-11α-(1-hydroxy-1-methylethyl)prostaglandin-E2], the inhibition in vivo at 8 mg/kg in assay [1] (sc, subcutaneous, 8 mg/kg) came to 31%.

In the case of `CCCCC[C@H](O)/C=C/[C@@H]1[C@@H](C/C=C\CCCC(=O)O)[C@@H](O)C[C@H]1C(C)(C)O` [11-deoxy-11α-(1-hydroxy-1-methylethyl)prostaglandin-F2α], the inhibition in vivo at 10 mg/kg in assay [3] (setting [5]) was found to be 36%; in assay [3] (setting [6]), 35%.

Consider `CCCCC[C@H](O)/C=C/[C@@H]1[C@@H](C/C=C\CCCC(=O)O)[C@@H](O)C[C@H]1C(N)=O` [11α-carboxamido-11-deoxyprostaglandin F2α], for which, in assay [1] (intraduodenal), the inhibition in vivo at 50 mg/kg was 27%. In addition, the “Ulcer score, treated animals” value in assay [2] (setting [4]) came out at 2.3.

Regarding `CCCCC[C@H](O)/C=C/[C@@H]1[C@@H](C/C=C\CCCC(=O)O)[C@@H](O)C[C@H]1C(C)C` [11α-isopropyl-11-deoxyprostaglandin F2α], the inhibition in vivo at 10 mg/kg in assay [3] (setting [5]) was determined as 44%; in assay [3] (setting [6]), 35%.

Consider `CCCCCC(C)/C=C/C1C(C)CC(=O)C1C/C=C\CCCC(=O)O` (stereo not drawn) [l-11α,15-dimethyl-11,15-bis-deoxyprostaglandin-E2 α], for which the “Ulcer score, treated animals” value in assay [2] (setting [4]) was found to be 2.2.

As to `CCCCC[C@H](O)/C=C/[C@H]1[C@H](C[N+](=O)[O-])C[C@H](O)[C@@H]1C/C=C\CCCC(=O)O` [11α-nitromethyl-11-deoxyprostaglandin F2α], in assay [1] (intraduodenal), the inhibition in vivo at 50 mg/kg amounted to 38%. Moreover, the “Ulcer score, treated animals” value in assay [2] (setting [4]) was found to be 1.8.

As to `CCCCC[C@@H](/C=C/[C@H]1[C@H](SCC)CC(=O)[C@@H]1C/C=C\CCCC(=O)OC)OC(C)=O` [11-deoxy-11α-ethylthio-15-O-acetyl prostaglandin E2 methyl ester], the inhibition in vivo at 50 mg/kg in assay [1] (intraduodenal) turned out to be 27%. In addition, the inhibition in vivo at 2.5 mg/kg in assay [3] (setting [7]) is 54%; in assay [3] (setting [8]), 51%. In addition, the inhibition in vivo at 5 mg/kg in assay [3] (setting [7]) turned out to be 19%; in assay [3] (setting [8]), 59%. Further, the inhibition in vivo at 10 mg/kg in assay [3] (setting [5]) was 80%; in assay [3] (setting [6]), 24%.

In the case of `CCCCCC(C)/C=C/[C@H]1[C@H](C)CC(=O)[C@@H]1C/C=C\CCCC(=O)OC` (stereo partly drawn) [11-deoxy-11α-methyl-15-deoxy-15-methylprostaglandin E2 methyl ester], the inhibition in vivo at 50 mg/kg in assay [1] (intraduodenal) was 40%.

In the case of `CCCCCC(C)/C=C/[C@@H]1[C@@H](C/C=C\CCCC(=O)O)[C@@H](O)C[C@H]1C` (stereo partly drawn) [l-9α-hydroxy-11α,15-dimethyl-S--cis,13-trans-prostadienoic acid], the inhibition in vivo at 10 mg/kg in assay [3] (setting [5]) stood at 25%; in assay [3] (setting [6]), 20%.

`CCCCC[C@H](O)/C=C/[C@@H]1[C@@H](C/C=C\CCCC(=O)O)[C@@H](O)C[C@H]1c1ccccc1` [l-11α-phenyl-11-deoxyprostaglandin-F2 α, l-11-deoxy-11α-phenylprostaglandin-F2 α]: the “Ulcer score, treated animals” value in assay [2] (setting [9]) was 2.0.

With `CCCCC[C@H](O)/C=C/[C@H]1[C@@H](CO)C[C@H](O)[C@@H]1C/C=C\CCCC(=O)O` [l-11β-hydroxymethyl-11-deoxyprostaglandin-F2 α], the inhibition in vivo at 10 mg/kg was determined as 0% in assay [3] (setting [5]) and 43% in assay [3] (setting [6]).

Take `CCCCC[C@H](O)/C=C/[C@H]1[C@H](CC)C[C@H](O)[C@@H]1C/C=C\CCCC(=O)O` [l-11α-ethyl-11-deoxyprostaglandin-F2 α, 11α-ethyl-11-deoxyprostaglandin F2α]: in assay [2] (setting [9]), the “Ulcer score, treated animals” value is 2.2.

On to `CCCCCC(O)/C=C/C1C(S)CC(O)C1C/C=C\CCCC(=O)O` (stereo not drawn) [l-11-mercapto-11-deoxprostaglandin-F2 α, l-11-deoxy-11α-mercaptoprostaglandin-F2 α], for which, in assay [3] (10 mg/kg, 60 min), the “% Inhibition of total acid output, after 60 minutes (A)” value is on record as 44%. For the same molecule, the “% Inhibition of total acid output, after 120 minutes (B)” value in assay [3] (10 mg/kg, 120 min) turned out to be 55%.

Take `CCCCC[C@H](O)/C=C/[C@H]1[C@H](SC)CC(=O)[C@@H]1C/C=C\CCCC(=O)OC` [l-11α-methylthio-11-deoxyprostaglandin-E2 methyl ester]: the inhibition in vivo at 100 mg/kg in assay [1] (intraduodenal, 100 mg/kg) stood at 55%.

For `CCCCC[C@H](O)/C=C/[C@H]1C(C#N)CC(=O)[C@@H]1C/C=C\CCCC(=O)OC` (stereo partly drawn) [11α/β-cyano-11-deoxyprostaglandin E2 methyl ester], the inhibition in vivo at 50 mg/kg in assay [1] (intraduodenal) worked out at 33%. For the same molecule, the “Ulcer score, treated animals” value in assay [2] (setting [9]) is recorded as 1.3.

The values are drawn from US4444691A, “11-Cyano-prostaglandins of the F-series” (American Cyanamid Company, priority 1982, dated 1984).
